Data from US9777015B2, “Useful thiophene derivatives in the treatment of diabetes” (METABRAIN RESEARCH, priority 2012, dated 2017).
Where two headings read alike, the source gives them in different places.

Test system: hepatocytes isolated from Wistar rat liver
Assay: Test of inhibition of hepatic production of glucose (isolated hepatocytes, 3 h or 20 h incubation)
Type: cell-based
Conditions: for activity at 50 µM / activity at 100 µM: Rattus norvegicus, Hepatocyte, hepatic glucose production, rat hepatocytes; for activity at 50 µM: compound at 50 μM, read-out: HGP % of ctrl @ 50 μM; for activity at 100 µM: compound at 100 μM, read-out: HGP % of ctrl @ 100 μM; for inhibition of hepatic production of glucose: with two doses
Method: The hepatocytes are isolated from Wistar rat liver having fasted for 24 h after perfusion of collagenase in the portal vein. The freshly isolated hepatocytes are sown in 6-well plates coated with collagen and containing an adhesion medium (Williams Medium). After adhesion, the medium is replaced with RPMI 1640 medium without any glucose, containing hydrocortisone (7.10^−5M) for a duration from 16 to 18 h. The next day, the glucose hepatic production test is conducted in a Krebs medium for 3 h. The basal conditions are cells incubated with only Krebs, the stimulated conditions are the cells placed in Krebs+lactate+pyruvate, the produced conditions are the cells exposed to chemical compounds in a Krebs/lactate/pyruvate medium. In the case when the compounds are dissolved in DMSO, all the conditions of the tests are met in the presence of a final concentration of 0.1% DMSO. The positive control of the test is the mercaptopicolinate known for its inhibitory action on hepatic production of glucose via the phosphoenolpyruvate carboxykinase. For short term treatments, the compounds are incubated for 3 h. For long term treatments, the compounds are incubated for 20 h at the moment when the hepatocytes are cultivated in RPMI and then added during the hepatic production test for 3 h. At the end of the 3 hours of incubation, the supernatant is recovered for measurement of glucose with a colorimetric method using glucose oxidase. The cells are lysed with a 0.1% NaOH aqueous solution in order to measure the amount of protein with the Lowry method. The results are expressed in mmols of glucose per mg of protein.

SMILES	activity at 50 µM (3 h, 3 h incubation) [%]	activity at 100 µM (3 h, 3 h incubation) [%]	inhibition of hepatic production of glucose (3 h incubation)	inhibition of hepatic production of glucose (20 h incubation)	activity at 50 µM (20 h, 20 h incubation) [%]	activity at 100 µM (20 h, 20 h incubation) [%]
CCOC(=O)Cc1cc(C(=O)NNC(=O)c2cccc(OC)c2)sc1-c1ccc(Cl)cc1 [compound 178, ethyl 2-[2-(4-chlorophenyl)-5-[[(3-methoxybenzoyl)-amino]carbamoyl]-3-thienyl]acetate]	92	72				
COc1ccc(C(=NO)c2cc(CC(=O)O)c(-c3ccc(Cl)cc3)s2)cc1 [compound 109, 2-(2-(4-chlorophenyl)-5-((hydroxyimino)(4-methoxyphenyl)methyl)thiophen-3-yl)acetic acid]	69	27				
COc1cccc(C(=O)c2cc(CC(=O)O)c(-c3ccc(Cl)cc3)s2)c1 [compound 59, 2-(2-(4-chlorophenyl)-5-(3-methoxybenzoyl)thiophen-3-yl) acetic acid]	67	35				
COc1cc(Cl)ccc1C(=O)c1cc(CC(=O)O)c(-c2ccc(Cl)cc2)s1 [compound 156, 2-[5-(4-chloro-2-methoxy-benzoyl)-2-(4-chlorophenyl)-3-thienyl]acetic acid]	21	7	strongest inhibitions			
O=C(O)Cc1cc(C(=O)C2CCCCC2)sc1-c1ccc(Cl)cc1 [compound 61, 2-(2-(4-chlorophenyl)-5-(cyclohexanecarbonyl)thiophen-3-yl)acetic acid]	78	66				
COc1ccc(C(=O)c2cc(CC(=O)NCCN(C)C)c(-c3ccc(Cl)c(Cl)c3)s2)cc1 [compound 166, 2-[2-(3,4-dichlorophenyl)-5-(4-methoxybenzoyl)-3-thienyl]-N-(2-dimethylaminoethyl)acetamide]	71	65				
CCOC(=O)Cc1cc(C(=O)Cc2ccccc2)sc1-c1ccc(Cl)cc1 [compound 16, ethyl 2-(2-(4-chlorophenyl)-5-(2-phenylacetyl)thiophen-3-yl)acetate]	69	63				
O=C(O)Cc1cc(C(=O)c2ccc(Cl)c(Cl)c2)sc1-c1ccc(Cl)cc1 [compound 57, 2-(2-(4-chlorophenyl)-5-(3,4-dichlorobenzoyl)thiophen-3-yl)acetic acid]	77	51				
COc1ccc(-c2sc(C(=O)c3ccc(F)cc3F)cc2CC(=O)O)cc1 [compound 65, 2-(5-(2,4-difluorobenzoyl)-2-(4-methoxyphenyl)thiophen-3-yl)acetic acid]	93	66				
CCOC(=O)Cc1cc(C(=O)CCc2ccccc2)sc1-c1ccc(OC)cc1 [compound 38, ethyl 2-(2-(4-methoxyphenyl)-5-(3-phenylpropanoyl)thiophen-3-yl)acetate]	74	70				
COc1ccc(C(=O)c2cc(CC(N)=O)c(-c3ccc(Cl)cc3)s2)cc1 [compound 86, 2-(2-(4-chlorophenyl)-5-(4-methoxybenzoyl)thiophen-3-yl)acetamide]	77	72				
COc1ccc(NC(=O)c2cc(CC(=O)O)c(-c3ccc(Cl)cc3)s2)cc1 [compound 121, 2-(2-(4-chlorophenyl)-5-((4-methoxyphenyl)carbamoyl)thiophen-3-yl)acetic acid]	80	66				
COCC(C(=O)O)c1cc(C(=O)c2ccc(OC)cc2)sc1-c1ccc(Cl)cc1 (stereo not drawn) [compound 128, 2-(2-(4-chlorophenyl)-5-(4-methoxybenzoyl)thiophen-3-yl)-3-methoxypropanoic acid]				strongest inhibitions	41	16
COC(=O)Cc1cc(C(=O)c2cccc(Cl)c2)sc1-c1ccccc1 [compound 2, methyl 2-(5-(3-chlorobenzoyl)-2-phenylthiophen-3-yl)acetate]	83	62				
COc1ccc(C(=O)c2cc(CC(=O)O)c(-c3ccc(Cl)cc3)s2)cc1 [compound 60, 2-(2-(4-chlorophenyl)-5-(4-methoxybenzoyl)thiophen-3-yl) acetic acid]	74	53				
CCON=C(c1ccc(Cl)c(Cl)c1)c1cc(CC(=O)O)c(-c2ccc(Cl)cc2)s1 [compound 167, 2-[2-(4-chlorophenyl)-5-[C-(3,4-dichlorophenyl)-N-ethoxy-carbonimidoyl]-3-thienyl]acetic acid]	20	23	strongest inhibitions			
COc1ccc(C(=O)c2cc(CC(=O)O)c(-c3ccccc3)s2)cc1 [compound 51, 2-(5-(4-methoxybenzoyl)-2-phenylthiophen-3-yl)acetic acid]	90	54				
COc1ccc(C(=O)c2cc(CC(=O)O)c(-c3ccc(OC)cc3)s2)cc1 [compound 45, 2-(5-(4-methoxybenzoyl)-2-(4-methoxyphenyl)thiophen-3-yl)acetic acid]	82	73				
CCOC(=O)Cc1cc(S(=O)(=O)c2ccc(OC)cc2)sc1-c1ccc(Cl)c(Cl)c1 [compound 174, ethyl 2-[2-(3,4-dichlorophenyl)-5-(4-methoxyphenyl)sulfonyl-3-thienyl]acetate]	73	77				
COc1ccc(C(=O)c2cc(C(C)C(=O)O)c(-c3ccc(Cl)cc3)s2)cc1 (stereo not drawn) [compound 127, 2-(2-(4-chlorophenyl)-5-(4-methoxybenzoyl)thiophen-3-yl)propanoic acid]	54	23	strongest inhibitions			
COC(=O)Cc1cc(C(=O)C2CCCCC2)sc1-c1ccccc1 [compound 6, methyl 2-(5-(cyclohexanecarbonyl)-2-phenylthiophen-3-yl)acetate]	72	55				
O=C(O)Cc1cc(C(=O)c2ccco2)sc1-c1ccccc1 [compound 48, 2-(5-(furan-2-carbonyl)-2-phenyl-thiophen-3-yl)acetic acid]	91	73				
COC(=O)Cc1cc(C(=O)c2ccc(OC)cc2)sc1-c1ccccc1 [compound 5, methyl 2-(5-(4-methoxybenzoyl)-2-phenylthiophen-3-yl)acetate]	68	50				
O=C(O)Cc1cc(C(=O)c2ccccn2)sc1-c1ccc(Cl)cc1 [compound 149, 2-(2-(4-chlorophenyl)-5-picolinoylthiophen-3-yl)acetic acid]					47	13
O=C(O)Cc1cc(C(=O)CCc2ccccc2)sc1-c1ccc(Cl)cc1 [compound 63, 2-(2-(4-chlorophenyl)-5-(3-phenylpropanoyl)thiophen-3-yl) acetic acid]	56	28	strongest inhibitions			
COc1ccc(C(=O)c2cc(CC(=O)OC(C)C)c(-c3ccc(Cl)cc3)s2)cc1 [compound 43, isopropyl 2-(2-(4-chlorophenyl)-5-(4-methoxybenzoyl)thiophen-3-yl)acetate]	82	73				
